PubChem BioAssay (NCI)
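The concentration for 50% growth inhibition is given as GI50. TGI: total growth inhibition.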

Columns and labels:
Assay in all cases: NCI anticancer screen, dose series, 384-well format
CCRF-CEM leukemia = system: CCRF-CEM leukemia
OVCAR-3 ovarian = system: OVCAR-3 ovarian
PC-3 prostate = system: PC-3 prostate
HOP-62 NSCLC = system: HOP-62 NSCLC
RPMI-8226 leukemia = system: RPMI-8226 leukemia
SK-MEL-2 melanoma = system: SK-MEL-2 melanoma
MCF7 breast = system: MCF7 breast
SR leukemia = system: SR leukemia
COLO 205 colon = system: COLO 205 colon
OVCAR-5 ovarian = system: OVCAR-5 ovarian
A549 NSCLC = system: A549 NSCLC
NCI-H522 lung = system: NCI-H522 lung
SW-620 colon = system: SW-620 colon
A498 renal = system: A498 renal
HOP-92 NSCLC = system: HOP-92 NSCLC
RXF 393 renal = system: RXF 393 renal
SF-539 CNS = system: SF-539 CNS
SK-MEL-5 melanoma = system: SK-MEL-5 melanoma
HT29 colon = system: HT29 colon
SK-MEL-28 melanoma = system: SK-MEL-28 melanoma
NCI/ADR-RES ovarian = system: NCI/ADR-RES ovarian
SK-OV-3 ovarian = system: SK-OV-3 ovarian
NCI-H322M lung = system: NCI-H322M lung
NCI-H226 lung = system: NCI-H226 lung
K-562 leukemia = system: K-562 leukemia
UACC-257 melanoma = system: UACC-257 melanoma
M14 melanoma = system: M14 melanoma
HCT-116 colon = system: HCT-116 colon
LOX IMVI melanoma = system: LOX IMVI melanoma
OVCAR-8 ovarian = system: OVCAR-8 ovarian
IGROV1 ovarian = system: IGROV1 ovarian
U251 glioblastoma = system: U251 glioblastoma
TK-10 renal = system: TK-10 renal
HCC-2998 colon = system: HCC-2998 colon
SF-295 CNS = system: SF-295 CNS
MALME-3M melanoma = system: MALME-3M melanoma
MDA-MB-435 melanoma = system: MDA-MB-435 melanoma
KM12 colon = system: KM12 colon
NCI-H460 NSCLC = system: NCI-H460 NSCLC
786-0 renal = system: 786-0 renal
T-47D breast = system: T-47D breast
ACHN renal = system: ACHN renal
HL-60(TB) leukemia = system: HL-60(TB) leukemia
SNB-19 CNS = system: SNB-19 CNS
SF-268 CNS = system: SF-268 CNS
UACC-62 melanoma = system: UACC-62 melanoma
MDA-MB-231 breast = system: MDA-MB-231 breast
OVCAR-4 ovarian = system: OVCAR-4 ovarian
MDA-MB-468 breast = system: MDA-MB-468 breast
DU-145 prostate = system: DU-145 prostate
CAKI-1 renal = system: CAKI-1 renal
HCT-15 colon = system: HCT-15 colon
MOLT-4 leukemia = system: MOLT-4 leukemia
UO-31 renal = system: UO-31 renal
NCI-H23 lung = system: NCI-H23 lung
BT-549 breast = system: BT-549 breast
SN12C renal = system: SN12C renal

## COc1ccccc1-c1nccc(COc2ccccc2C[C@@H](Oc2ncnc3sc(-c4ccc(F)cc4)c(-c4ccc(OCCN5CCN(C)CC5)c(Cl)c4C)c23)C(=O)O)n1
CCRF-CEM leukemia
  GI50: 29.6 nM
  TGI: 801 nM
OVCAR-3 ovarian
  GI50: 1850 nM
  TGI: 3270 nM
PC-3 prostate
  GI50: 1820 nM
  TGI: 3240 nM
HOP-62 NSCLC
  GI50: 1710 nM
  TGI: 3270 nM
RPMI-8226 leukemia
  GI50: < 10 nM
  TGI: < 10 nM
SK-MEL-2 melanoma
  GI50: < 10 nM
  TGI: < 10 nM
MCF7 breast
  GI50: 46.2 nM
  TGI: 1040 nM
SR leukemia
  GI50: < 10 nM
  TGI: < 10 nM
COLO 205 colon
  GI50: 1820 nM
  TGI: 3540 nM
OVCAR-5 ovarian
  GI50: 2730 nM
  TGI: 6270 nM
A549 NSCLC
  GI50: 10600 nM
  TGI: 22500 nM
NCI-H522 lung
  GI50: < 10 nM
  TGI: 95.9 nM
SW-620 colon
  GI50: 1880 nM
  TGI: 3360 nM
A498 renal
  GI50: 2260 nM
  TGI: 5430 nM
HOP-92 NSCLC
  GI50: 1720 nM
  TGI: 3100 nM
RXF 393 renal
  GI50: 78.6 nM
  TGI: 1040 nM
SF-539 CNS
  GI50: 1200 nM
  TGI: 2470 nM
SK-MEL-5 melanoma
  GI50: 1470 nM
  TGI: 2800 nM
HT29 colon
  GI50: 1830 nM
  TGI: 3330 nM
SK-MEL-28 melanoma
  GI50: 1420 nM
  TGI: 2730 nM
NCI/ADR-RES ovarian
  GI50: 26800 nM
  TGI: > 100000 nM
SK-OV-3 ovarian
  GI50: 2950 nM
  TGI: 9170 nM
NCI-H322M lung
  GI50: 1910 nM
  TGI: 3720 nM
NCI-H226 lung
  GI50: 2040 nM
  TGI: 3640 nM
K-562 leukemia
  GI50: 1930 nM
  TGI: 3480 nM
UACC-257 melanoma
  GI50: 1700 nM
  TGI: 3400 nM
M14 melanoma
  GI50: 1540 nM
  TGI: 2890 nM
HCT-116 colon
  GI50: 1940 nM
  TGI: 3530 nM
LOX IMVI melanoma
  GI50: 1980 nM
  TGI: 3420 nM
OVCAR-8 ovarian
  GI50: 1770 nM
  TGI: 3240 nM
IGROV1 ovarian
  GI50: 1660 nM
  TGI: 3090 nM
U251 glioblastoma
  GI50: 1810 nM
  TGI: 3370 nM
TK-10 renal
  GI50: 2380 nM
  TGI: 5650 nM
HCC-2998 colon
  GI50: 1190 nM
  TGI: 2520 nM
SF-295 CNS
  GI50: 1400 nM
  TGI: 2720 nM
MALME-3M melanoma
  GI50: 1080 nM
  TGI: 2290 nM
MDA-MB-435 melanoma
  GI50: 391 nM
  TGI: 1600 nM
KM12 colon
  GI50: 1730 nM
  TGI: 3140 nM
NCI-H460 NSCLC
  GI50: 1330 nM
  TGI: 3540 nM
786-0 renal
  GI50: 1780 nM
  TGI: 3210 nM
T-47D breast
  GI50: 1580 nM
  TGI: 3430 nM
ACHN renal
  GI50: 4570 nM
  TGI: 14800 nM
HL-60(TB) leukemia
  GI50: < 10 nM
  TGI: < 10 nM
SNB-19 CNS
  GI50: 1870 nM
  TGI: 3360 nM
SF-268 CNS
  GI50: 1570 nM
  TGI: 2930 nM
UACC-62 melanoma
  GI50: 20.6 nM
  TGI: 57 nM
MDA-MB-231 breast
  GI50: 1570 nM
  TGI: 2960 nM
OVCAR-4 ovarian
  GI50: 163 nM
  TGI: 3110 nM
MDA-MB-468 breast
  GI50: 10.9 nM
  TGI: 54 nM
DU-145 prostate
  GI50: 2130 nM
  TGI: 4580 nM
CAKI-1 renal
  GI50: 2750 nM
  TGI: 6510 nM
HCT-15 colon
  GI50: 5290 nM
  TGI: 16200 nM
MOLT-4 leukemia
  GI50: < 10 nM
  TGI: 17.7 nM
UO-31 renal
  GI50: 4230 nM
  TGI: 14200 nM
NCI-H23 lung
  GI50: 45.3 nM
  TGI: 380 nM
BT-549 breast
  GI50: 1270 nM
  TGI: 2550 nM
SN12C renal
  GI50: 1520 nM
  TGI: 2900 nM
